One experiment addresses Histone deacetylase 3 (Homo sapiens, UniProt O15379). Briefly: Inhibition of human recombinant HDAC3 using Boc-Lys(Ac)-AMC fluorogenic substrate measured after 60 mins by fluorescence assay.
The test system of a further experiment is U-937. Put plainly: Cytotoxicity against human U-937 cells assessed as reduction in cell viability at 3 uM incubated for 24 hrs by MTT assay relative to control. It counts as functional. A general note: Tetrazolium dyes change colour on reduction, which living cells bring about.
Experiment [1] has as its target Histone deacetylase 1 (Homo sapiens) (UniProt Q13547). Put plainly: Inhibition of HDAC1 (unknown origin) at 10 uM relative to control.

Sequence of Histone deacetylase 3 (O15379 whole entry): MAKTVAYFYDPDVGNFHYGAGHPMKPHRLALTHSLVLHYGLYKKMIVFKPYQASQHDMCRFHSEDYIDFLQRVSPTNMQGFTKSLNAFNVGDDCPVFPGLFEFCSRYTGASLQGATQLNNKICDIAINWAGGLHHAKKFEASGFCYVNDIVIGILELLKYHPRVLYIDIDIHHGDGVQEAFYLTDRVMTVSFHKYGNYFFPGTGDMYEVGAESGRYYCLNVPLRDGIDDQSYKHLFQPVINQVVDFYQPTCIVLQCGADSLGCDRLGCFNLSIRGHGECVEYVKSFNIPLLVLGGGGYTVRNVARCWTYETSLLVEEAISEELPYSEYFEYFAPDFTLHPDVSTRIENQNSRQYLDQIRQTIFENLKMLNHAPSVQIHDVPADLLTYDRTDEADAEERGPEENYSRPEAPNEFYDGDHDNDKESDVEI
Sequence of Histone deacetylase 1 (Homo sapiens) (Q13547 whole entry): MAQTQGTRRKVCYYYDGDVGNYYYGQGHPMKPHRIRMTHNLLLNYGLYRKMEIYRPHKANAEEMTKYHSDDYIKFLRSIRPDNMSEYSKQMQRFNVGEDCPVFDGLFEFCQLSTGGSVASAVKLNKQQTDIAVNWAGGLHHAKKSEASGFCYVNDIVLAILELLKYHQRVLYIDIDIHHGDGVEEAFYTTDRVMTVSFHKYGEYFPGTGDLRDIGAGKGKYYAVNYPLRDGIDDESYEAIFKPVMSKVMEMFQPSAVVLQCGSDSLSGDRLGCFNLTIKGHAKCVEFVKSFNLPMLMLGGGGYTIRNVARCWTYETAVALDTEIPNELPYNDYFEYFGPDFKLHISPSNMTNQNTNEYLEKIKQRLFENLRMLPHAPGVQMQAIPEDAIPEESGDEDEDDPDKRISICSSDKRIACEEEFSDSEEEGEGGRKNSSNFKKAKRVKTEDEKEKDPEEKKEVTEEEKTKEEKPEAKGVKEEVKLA

For the compound `O=C(CCCCCCn1cc(Cc2ccccc2)c2cccnc21)NO`, the IC50 (as a rule, the concentration at which inhibition is half-maximal) on Histone deacetylase 3 was 60 nM.

Regarding `Cc1sc2c(c1C)C(c1ccc(Cl)cc1)=N[C@@H](CC(=O)NCCCC(=O)Nc1ccccc1N)c1nnc(C)n1-2`, the Activity in the experiment with U-937 is 16.12%.

For the compound `Cc1noc(C)c1-c1cnc2c(c1)c(Cc1ccc(F)cc1)cn2CCCCCCC(=O)NO`, the IC50 at Histone deacetylase 3 is 5 nM. The inhibition (usually the drop in the measured response relative to a control, in per cent) in experiment [1] was found to be 88%.

For the compound `COC(c1c(F)cccc1Cl)c1c[nH]c2ncc(-c3c(C)noc3C)cc12` (stereo not given), the IC50 at Histone deacetylase 3 is 5 nM.

Source of the values: ChEMBL document CHEMBL5096163, “Current status in the discovery of dual BET/HDAC inhibitors” (Bioorg Med Chem Lett, 2021).
